Active and inactive are the calls of the source.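 How the source made its calls: active means LYPLA1 and LYPLA2 each at a ratio of 0.5 or below, with under two anti-target hydrolases also at that level; inactive means the rest.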
Columns and labels:
Test in all cases: SILAC ABPP off-target profiling in HeLa cells – cell-based, LC-MS, powders, selectivity assay for LYPLA1/LYPLA2 inhibitor project, late-stage follow-up (AID 743137)
[1] = test system: MAGL (MGLL); conditions: FP-biotin LC-MS, serine hydrolase panel, at 1 µM, active compounds read low
[2] = biological target: Acyl-coenzyme A thioesterase 2, mitochondrial (Homo sapiens) (UniProt P49753); conditions: FP-biotin LC-MS, serine hydrolase panel, ACOT2, at 1 µM, active compounds read low
[3] = test system: PNPLA6; conditions: FP-biotin LC-MS, serine hydrolase panel, at 1 µM, active compounds read low
[4] = biological target: Acyl-protein thioesterase 2 (Homo sapiens) (UniProt O95372); conditions: FP-biotin LC-MS, serine hydrolase panel, LYPLA2, at 1 µM, active compounds read low
[5] = test system: SCPEP1; conditions: FP-biotin LC-MS, serine hydrolase panel, at 1 µM, active compounds read low
[6] = biological target: Lysosomal protective protein (Homo sapiens) (UniProt P10619); conditions: FP-biotin LC-MS, serine hydrolase panel, CTSA, at 1 µM, active compounds read low
Sequence of Lysosomal protective protein (Homo sapiens) (P10619 whole entry, looked up): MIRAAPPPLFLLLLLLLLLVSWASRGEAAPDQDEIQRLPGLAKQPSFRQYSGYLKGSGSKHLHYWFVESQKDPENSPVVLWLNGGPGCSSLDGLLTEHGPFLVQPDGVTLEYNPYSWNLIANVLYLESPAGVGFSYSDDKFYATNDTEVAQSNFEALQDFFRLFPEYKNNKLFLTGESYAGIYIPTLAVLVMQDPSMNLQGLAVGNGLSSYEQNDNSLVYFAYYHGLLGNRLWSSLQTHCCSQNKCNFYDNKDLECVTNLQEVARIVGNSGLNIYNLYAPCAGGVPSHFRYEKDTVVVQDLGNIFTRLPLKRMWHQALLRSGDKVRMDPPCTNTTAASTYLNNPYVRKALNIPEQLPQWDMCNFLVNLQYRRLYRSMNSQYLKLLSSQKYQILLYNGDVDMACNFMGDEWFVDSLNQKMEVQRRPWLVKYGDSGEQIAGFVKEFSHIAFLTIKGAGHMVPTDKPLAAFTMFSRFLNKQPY

[7] = test system: ABHD12; conditions: FP-biotin LC-MS, serine hydrolase panel, at 1 µM, active compounds read low
[8] = biological target: Lysosomal Pro-X carboxypeptidase (Homo sapiens) (UniProt P42785); conditions: FP-biotin LC-MS, serine hydrolase panel, PRCP, at 1 µM, active compounds read low
Sequence of Lysosomal Pro-X carboxypeptidase (Homo sapiens) (P42785 whole entry, looked up): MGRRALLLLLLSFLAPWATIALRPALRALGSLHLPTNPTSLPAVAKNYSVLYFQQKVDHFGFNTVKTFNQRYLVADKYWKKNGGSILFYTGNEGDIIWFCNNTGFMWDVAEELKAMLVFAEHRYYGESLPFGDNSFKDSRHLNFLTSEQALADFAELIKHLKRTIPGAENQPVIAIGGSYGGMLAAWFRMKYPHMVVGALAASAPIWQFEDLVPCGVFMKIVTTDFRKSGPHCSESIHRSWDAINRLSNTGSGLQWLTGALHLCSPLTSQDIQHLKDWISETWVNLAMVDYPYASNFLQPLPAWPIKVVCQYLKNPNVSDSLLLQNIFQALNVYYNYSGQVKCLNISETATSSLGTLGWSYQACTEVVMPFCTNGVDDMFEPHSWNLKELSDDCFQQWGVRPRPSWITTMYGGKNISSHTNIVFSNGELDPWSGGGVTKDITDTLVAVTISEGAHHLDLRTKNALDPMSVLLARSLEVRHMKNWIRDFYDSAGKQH

[9] = biological target: Platelet-activating factor acetylhydrolase IB subunit alpha1 (Homo sapiens) (UniProt Q15102); conditions: FP-biotin LC-MS, serine hydrolase panel, PAFAH1B3, at 1 µM, active compounds read low
Sequence of Platelet-activating factor acetylhydrolase IB subunit alpha1 (Homo sapiens) (Q15102 whole entry, looked up): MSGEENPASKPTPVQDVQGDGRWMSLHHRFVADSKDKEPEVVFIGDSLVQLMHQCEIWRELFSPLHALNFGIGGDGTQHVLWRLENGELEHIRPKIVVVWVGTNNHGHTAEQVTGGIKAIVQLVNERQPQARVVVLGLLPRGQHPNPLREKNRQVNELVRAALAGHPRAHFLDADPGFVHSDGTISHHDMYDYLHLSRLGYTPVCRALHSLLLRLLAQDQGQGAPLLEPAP

[10] = biological target: Lysosomal phospholipase A and acyltransferase (Homo sapiens) (UniProt Q8NCC3); conditions: FP-biotin LC-MS, serine hydrolase panel, PLA2G15, at 1 µM, active compounds read low
Sequence of Lysosomal phospholipase A and acyltransferase (Homo sapiens) (Q8NCC3 whole entry, looked up): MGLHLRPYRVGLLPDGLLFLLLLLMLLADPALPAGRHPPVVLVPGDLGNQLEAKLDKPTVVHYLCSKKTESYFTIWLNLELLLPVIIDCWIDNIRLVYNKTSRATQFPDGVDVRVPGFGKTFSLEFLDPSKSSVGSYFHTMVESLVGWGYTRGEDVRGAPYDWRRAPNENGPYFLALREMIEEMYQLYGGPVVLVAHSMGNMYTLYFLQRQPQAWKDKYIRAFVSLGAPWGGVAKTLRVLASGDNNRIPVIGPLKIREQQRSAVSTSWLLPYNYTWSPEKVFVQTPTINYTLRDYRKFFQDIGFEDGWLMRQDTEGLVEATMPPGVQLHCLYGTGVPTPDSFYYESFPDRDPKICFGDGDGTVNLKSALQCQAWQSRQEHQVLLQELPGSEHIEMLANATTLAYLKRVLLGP

[11] = test system: ESD; conditions: FP-biotin LC-MS, serine hydrolase panel, at 1 µM, active compounds read low
[12] = biological target: Prolyl endopeptidase-like (Homo sapiens) (UniProt Q4J6C6); conditions: FP-biotin LC-MS, serine hydrolase panel, PREPL, at 1 µM, active compounds read low
[13] = biological target: Platelet-activating factor acetylhydrolase IB subunit alpha2 (Homo sapiens) (UniProt P68402); conditions: FP-biotin LC-MS, serine hydrolase panel, PAFAH1B2, at 1 µM, active compounds read low
Sequence of Platelet-activating factor acetylhydrolase IB subunit alpha2 (Homo sapiens) (P68402 whole entry, looked up): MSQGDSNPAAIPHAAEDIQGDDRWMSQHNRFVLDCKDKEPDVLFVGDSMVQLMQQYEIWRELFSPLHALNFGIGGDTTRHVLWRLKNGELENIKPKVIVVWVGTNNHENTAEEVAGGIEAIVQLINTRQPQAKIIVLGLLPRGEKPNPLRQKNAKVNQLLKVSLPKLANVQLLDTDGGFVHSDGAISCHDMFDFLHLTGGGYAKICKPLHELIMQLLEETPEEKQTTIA

[14] = test system: ABHD10; conditions: FP-biotin LC-MS, serine hydrolase panel, at 1 µM, active compounds read low
[15] = biological target: Prolyl endopeptidase FAP (Homo sapiens) (UniProt Q12884); conditions: FP-biotin LC-MS, serine hydrolase panel, at 1 µM, active compounds read low
Sequence of Prolyl endopeptidase FAP (Homo sapiens) (Q12884 whole entry, looked up): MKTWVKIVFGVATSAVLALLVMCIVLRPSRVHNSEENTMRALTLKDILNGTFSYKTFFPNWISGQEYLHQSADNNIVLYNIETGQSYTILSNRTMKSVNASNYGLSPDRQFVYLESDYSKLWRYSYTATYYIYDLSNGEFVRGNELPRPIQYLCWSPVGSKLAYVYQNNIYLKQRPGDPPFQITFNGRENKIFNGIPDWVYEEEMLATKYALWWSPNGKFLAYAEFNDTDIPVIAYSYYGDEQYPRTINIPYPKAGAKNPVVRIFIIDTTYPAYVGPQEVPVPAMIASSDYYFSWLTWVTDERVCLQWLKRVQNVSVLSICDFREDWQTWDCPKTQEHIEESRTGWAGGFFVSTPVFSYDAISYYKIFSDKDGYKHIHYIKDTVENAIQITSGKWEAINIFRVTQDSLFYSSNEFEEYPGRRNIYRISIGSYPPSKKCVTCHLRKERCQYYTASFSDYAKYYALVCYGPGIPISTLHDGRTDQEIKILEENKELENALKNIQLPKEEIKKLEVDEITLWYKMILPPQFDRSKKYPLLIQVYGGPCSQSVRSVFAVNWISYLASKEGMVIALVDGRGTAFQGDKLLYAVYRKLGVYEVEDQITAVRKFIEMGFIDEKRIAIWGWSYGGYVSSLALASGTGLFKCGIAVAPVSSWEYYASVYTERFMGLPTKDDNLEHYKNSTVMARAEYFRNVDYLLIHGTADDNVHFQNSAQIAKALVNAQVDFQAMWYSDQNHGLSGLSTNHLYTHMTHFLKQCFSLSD

[16] = test system: NCEH1; conditions: FP-biotin LC-MS, serine hydrolase panel, at 1 µM, active compounds read low
[17] = test system: LYPLAL1; conditions: FP-biotin LC-MS, serine hydrolase panel, at 1 µM, active compounds read low
[18] = biological target: sn-1-specific diacylglycerol lipase ABHD11 (Homo sapiens) (UniProt Q8NFV4); conditions: FP-biotin LC-MS, serine hydrolase panel, at 1 µM, active compounds read low
Sequence of sn-1-specific diacylglycerol lipase ABHD11 (Homo sapiens) (Q8NFV4 whole entry, looked up): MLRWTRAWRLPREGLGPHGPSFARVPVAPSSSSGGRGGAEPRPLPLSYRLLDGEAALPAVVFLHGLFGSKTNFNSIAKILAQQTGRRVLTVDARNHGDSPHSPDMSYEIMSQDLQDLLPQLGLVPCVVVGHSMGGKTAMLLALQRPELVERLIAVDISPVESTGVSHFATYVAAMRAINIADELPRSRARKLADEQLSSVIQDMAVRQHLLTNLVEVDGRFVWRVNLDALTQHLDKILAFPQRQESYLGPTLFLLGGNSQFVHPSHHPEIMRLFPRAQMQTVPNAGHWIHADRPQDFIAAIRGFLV

[19] = biological target: Platelet-activating factor acetylhydrolase 2, cytoplasmic (Homo sapiens) (UniProt Q99487); conditions: FP-biotin LC-MS, serine hydrolase panel, PAFAH2, at 1 µM, active compounds read low
[20] = biological target: Dipeptidyl peptidase 8 (Homo sapiens) (UniProt Q6V1X1); conditions: FP-biotin LC-MS, serine hydrolase panel, DPP8, at 1 µM, active compounds read low
Sequence of Dipeptidyl peptidase 8 (Homo sapiens) (Q6V1X1 whole entry, looked up): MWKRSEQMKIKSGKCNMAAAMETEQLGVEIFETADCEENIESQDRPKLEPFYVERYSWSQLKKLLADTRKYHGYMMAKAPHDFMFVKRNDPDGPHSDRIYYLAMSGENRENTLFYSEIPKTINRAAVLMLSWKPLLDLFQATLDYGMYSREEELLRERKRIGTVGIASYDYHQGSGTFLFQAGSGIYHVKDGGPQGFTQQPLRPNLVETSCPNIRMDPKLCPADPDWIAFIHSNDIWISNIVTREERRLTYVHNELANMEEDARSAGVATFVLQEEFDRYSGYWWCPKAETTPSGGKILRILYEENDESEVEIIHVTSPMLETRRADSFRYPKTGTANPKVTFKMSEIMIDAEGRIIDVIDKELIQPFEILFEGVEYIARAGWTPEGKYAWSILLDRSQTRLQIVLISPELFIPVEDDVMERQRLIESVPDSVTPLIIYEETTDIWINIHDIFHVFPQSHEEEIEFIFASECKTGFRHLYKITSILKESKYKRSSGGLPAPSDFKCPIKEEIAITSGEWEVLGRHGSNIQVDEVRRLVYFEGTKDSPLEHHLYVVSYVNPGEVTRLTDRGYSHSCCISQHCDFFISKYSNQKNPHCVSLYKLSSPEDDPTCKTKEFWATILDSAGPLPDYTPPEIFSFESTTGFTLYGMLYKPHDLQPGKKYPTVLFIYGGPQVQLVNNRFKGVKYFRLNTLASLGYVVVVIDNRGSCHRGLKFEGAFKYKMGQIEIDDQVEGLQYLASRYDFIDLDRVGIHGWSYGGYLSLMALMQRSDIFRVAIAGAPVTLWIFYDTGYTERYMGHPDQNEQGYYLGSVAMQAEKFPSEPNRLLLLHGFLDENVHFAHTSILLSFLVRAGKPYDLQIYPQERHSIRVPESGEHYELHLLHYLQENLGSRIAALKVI

[21] = test system: FAM108B1; conditions: FP-biotin LC-MS, serine hydrolase panel, at 1 µM, active compounds read low
[22] = test system: ABHD6; conditions: FP-biotin LC-MS, serine hydrolase panel, at 1 µM, active compounds read low
[23] = biological target: Acylamino-acid-releasing enzyme (Homo sapiens) (UniProt P13798); conditions: FP-biotin LC-MS, serine hydrolase panel, APEH, at 1 µM, active compounds read low
Sequence of Acylamino-acid-releasing enzyme (Homo sapiens) (P13798 whole entry, looked up): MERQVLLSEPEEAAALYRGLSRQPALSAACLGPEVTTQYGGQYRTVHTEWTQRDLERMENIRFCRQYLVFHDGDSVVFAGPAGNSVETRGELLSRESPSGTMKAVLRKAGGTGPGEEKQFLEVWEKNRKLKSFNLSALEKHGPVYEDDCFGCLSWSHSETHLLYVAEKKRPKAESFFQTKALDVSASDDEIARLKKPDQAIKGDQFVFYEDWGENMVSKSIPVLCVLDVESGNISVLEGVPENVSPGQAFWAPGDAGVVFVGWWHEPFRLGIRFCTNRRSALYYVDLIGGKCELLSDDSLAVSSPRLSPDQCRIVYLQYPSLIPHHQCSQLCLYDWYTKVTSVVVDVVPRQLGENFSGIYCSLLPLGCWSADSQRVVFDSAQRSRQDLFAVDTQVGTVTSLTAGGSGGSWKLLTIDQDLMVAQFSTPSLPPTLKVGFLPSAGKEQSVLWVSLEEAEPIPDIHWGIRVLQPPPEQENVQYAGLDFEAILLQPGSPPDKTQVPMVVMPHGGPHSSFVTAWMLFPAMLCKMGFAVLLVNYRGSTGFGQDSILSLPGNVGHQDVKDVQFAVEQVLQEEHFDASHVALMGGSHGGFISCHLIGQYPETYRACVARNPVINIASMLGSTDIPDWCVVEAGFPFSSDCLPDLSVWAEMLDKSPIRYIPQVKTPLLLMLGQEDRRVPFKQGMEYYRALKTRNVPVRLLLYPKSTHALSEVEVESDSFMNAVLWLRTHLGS

[24] = biological target: PNPLA4 (UniProt P41247); conditions: FP-biotin LC-MS, serine hydrolase panel, at 1 µM, active compounds read low
Sequence of PNPLA4 (P41247 whole entry, looked up): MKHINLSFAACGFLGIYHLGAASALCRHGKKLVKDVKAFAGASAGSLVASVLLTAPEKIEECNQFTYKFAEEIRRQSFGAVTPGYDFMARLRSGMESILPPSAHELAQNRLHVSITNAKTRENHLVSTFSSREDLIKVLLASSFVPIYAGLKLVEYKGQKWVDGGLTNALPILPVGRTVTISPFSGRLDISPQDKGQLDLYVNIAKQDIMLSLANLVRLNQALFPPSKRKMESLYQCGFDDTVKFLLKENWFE

[25] = biological target: Acyl-protein thioesterase 1 (Homo sapiens) (UniProt O75608); conditions: FP-biotin LC-MS, serine hydrolase panel, LYPLA1, at 1 µM, active compounds read low
[26] = biological target: FAM111B (UniProt Q6SJ93); conditions: FP-biotin LC-MS, serine hydrolase panel, at 1 µM, active compounds read low

## O=C(ON1C(=O)C2CN(C(=O)N3CCOCC3)CCN2C1=O)N1CCC(CCc2ccc(Cl)cc2)CC1 (stereo unspecified)
[1]
  inhibitor/DMSO ratio: 0.57 (inactive)
[2]
  inhibitor/DMSO ratio: 1.4 (inactive)
[3]
  inhibitor/DMSO ratio: 1.2 (inactive)
[4]
  inhibitor/DMSO ratio: 0.084
[5]
  inhibitor/DMSO ratio: 0.93 (inactive)
[6]
  inhibitor/DMSO ratio: 1.1 (inactive)
[7]
  inhibitor/DMSO ratio: 0.83 (inactive)
[8]
  inhibitor/DMSO ratio: 0.93 (inactive)
[9]
  inhibitor/DMSO ratio: 1.4 (inactive)
[10]
  inhibitor/DMSO ratio: 1.4 (inactive)
[11]
  inhibitor/DMSO ratio: 1.2 (inactive)
[12]
  inhibitor/DMSO ratio: 1.5 (inactive)
[13]
  inhibitor/DMSO ratio: 1.2 (inactive)
[14]
  inhibitor/DMSO ratio: 1.3 (inactive)
[15]
  inhibitor/DMSO ratio: 1 (inactive)
[16]
  inhibitor/DMSO ratio: 0.98 (inactive)
[17]
  inhibitor/DMSO ratio: 1.7 (inactive)
[18]
  inhibitor/DMSO ratio: 1.3 (inactive)
[19]
  inhibitor/DMSO ratio: 1.4 (inactive)
[20]
  inhibitor/DMSO ratio: 1.4 (inactive)
[21]
  inhibitor/DMSO ratio: 0.98 (inactive)
[22]
  inhibitor/DMSO ratio: 0.05
[23]
  inhibitor/DMSO ratio: 1.3 (inactive)
[24]
  inhibitor/DMSO ratio: 1.2 (inactive)
[25]
  inhibitor/DMSO ratio: 0.05
[26]
  inhibitor/DMSO ratio: 1.4 (inactive)

Reference: PubChem BioAssay AID743137 (The Scripps Research Institute Molecular Screening Center, 2013)
